Reference: PubChem BioAssay (NCI)
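The concentration for 50% growth inhibition is given as GI50. TGI: concentration producing complete growth inhibition.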

Legend:
Assay in all cases: NCI-60 cell line screen, 384-well format
[1] = system: U251 glioblastoma
[2] = system: 786-0 renal
[3] = system: MCF7 breast
[4] = system: OVCAR-4 ovarian
[5] = system: HS 578T breast
[6] = system: ACHN renal
[7] = system: MDA-MB-468 breast
[8] = system: COLO 205 colon
[9] = system: SNB-19 CNS
[10] = system: SW-620 colon
[11] = system: NCI-H226 lung
[12] = system: HOP-62 NSCLC
[13] = system: NCI-H322M lung
[14] = system: A549 NSCLC
[15] = system: K-562 leukemia
[16] = system: SK-MEL-28 melanoma
[17] = system: NCI-H522 lung
[18] = system: CAKI-1 renal
[19] = system: HCT-15 colon
[20] = system: LOX IMVI melanoma
[21] = system: OVCAR-8 ovarian
[22] = system: RPMI-8226 leukemia
[23] = system: CCRF-CEM leukemia
[24] = system: NCI/ADR-RES ovarian
[25] = system: OVCAR-5 ovarian
[26] = system: HL-60(TB) leukemia
[27] = system: SN12C renal
[28] = system: UACC-257 melanoma
[29] = system: BT-549 breast
[30] = system: SF-295 CNS
[31] = system: DU-145 prostate
[32] = system: OVCAR-3 ovarian
[33] = system: MDA-MB-231 breast
[34] = system: HCT-116 colon
[35] = system: T-47D breast
[36] = system: SK-OV-3 ovarian
[37] = system: SR leukemia
[38] = system: MOLT-4 leukemia
[39] = system: NCI-H23 lung
[40] = system: NCI-H460 NSCLC
[41] = system: IGROV1 ovarian
[42] = system: HOP-92 NSCLC
[43] = system: SNB-75 CNS
[44] = system: SK-MEL-5 melanoma
[45] = system: SF-539 CNS
[46] = system: TK-10 renal
[47] = system: HCC-2998 colon
[48] = system: UO-31 renal
[49] = system: RXF 393 renal
[50] = system: M14 melanoma
[51] = system: MDA-MB-435 melanoma
[52] = system: EKVX NSCLC
[53] = system: A498 renal
[54] = system: KM12 colon
[55] = system: MALME-3M melanoma
[56] = system: HT29 colon
[57] = system: PC-3 prostate
[58] = system: SF-268 CNS
[59] = system: SK-MEL-2 melanoma
[60] = system: UACC-62 melanoma

In the case of `Cc1ccc(NC(=O)c2cccc(N(C)C)c2)cc1NC(=O)c1ccc(O)cc1`, the GI50 [1] is reported as 63.5 µM, the TGI [1] is reported as > 100 µM and the GI50 [2] is reported as 33.5 µM. The TGI [2] was > 100 µM, the GI50 [3] was 30.3 µM and the TGI [3] was > 100 µM. The GI50 [4] was 33.8 µM, the TGI [4] was > 100 µM and the GI50 [5] was 41.9 µM. The TGI [5] was > 100 µM, the GI50 [6] was 40.2 µM and the TGI [6] was > 100 µM. The GI50 [7] was 18.1 µM, the TGI [7] was 50.5 µM and the GI50 [8] was 18.8 µM. The TGI [8] was 87.2 µM, the GI50 [9] was 89.8 µM and the TGI [9] was > 100 µM. The GI50 [10] was 59.2 µM, the TGI [10] was > 100 µM and the GI50 [11] was 39.6 µM. For the same compound, the TGI [11] was > 100 µM, the GI50 [12] was 43.6 µM and the TGI [12] was > 100 µM. The GI50 [13] was 56.7 µM, the TGI [13] was > 100 µM and the GI50 [14] was 41.5 µM. For the same compound, the TGI [14] was > 100 µM, the GI50 [15] was 12 µM and the TGI [15] was 25.2 µM. The GI50 [16] was 26.3 µM, the TGI [16] was 74.1 µM and the GI50 [17] was 29.4 µM. For the same compound, the TGI [17] was > 100 µM, the GI50 [18] was 54.6 µM and the TGI [18] was > 100 µM. The GI50 [19] was 30.4 µM, the TGI [19] was > 100 µM and the GI50 [20] was 38.5 µM. For the same compound, the TGI [20] was > 100 µM, the GI50 [21] was 37.3 µM and the TGI [21] was > 100 µM. The GI50 [22] was 12.7 µM, the TGI [22] was 34.1 µM and the GI50 [23] was 22.5 µM. The TGI [23] was 70.7 µM, the GI50 [24] was 38.9 µM and the TGI [24] was > 100 µM. For the same compound, the GI50 [25] was 69.8 µM, the TGI [25] was > 100 µM and the GI50 [26] was 12.5 µM. For the same compound, the TGI [26] was 25.2 µM, the GI50 [27] was 57 µM and the TGI [27] was > 100 µM. It also gave a GI50 [28] of 25.1 µM, a TGI [28] of 69.1 µM and a GI50 [29] of 75.2 µM. For the same compound, the TGI [29] was > 100 µM, the GI50 [30] was 25.9 µM and the TGI [30] was 81.4 µM. The GI50 [31] was 47.5 µM, the TGI [31] was > 100 µM and the GI50 [32] was 36.9 µM. The TGI [32] was > 100 µM, the GI50 [33] was 32.9 µM and the TGI [33] was > 100 µM. The GI50 [34] was 29.6 µM, the TGI [34] was > 100 µM and the GI50 [35] was 15.1 µM. The TGI [35] was 33.6 µM, the GI50 [36] was 43.2 µM and the TGI [36] was > 100 µM. The GI50 [37] was 15 µM, the TGI [37] was 33.5 µM and the GI50 [38] was 16.8 µM. The TGI [38] was 34.4 µM, the GI50 [39] was 29.3 µM and the TGI [39] was > 100 µM. The GI50 [40] was 30.6 µM, the TGI [40] was > 100 µM and the GI50 [41] was 50.1 µM. The TGI [41] was > 100 µM, the GI50 [42] was 38.9 µM and the TGI [42] was > 100 µM. The GI50 [43] was 54.4 µM, the TGI [43] was > 100 µM and the GI50 [44] was 14.9 µM. The TGI [44] was 52.5 µM, the GI50 [45] was 42.8 µM and the TGI [45] was > 100 µM. For the same compound, the GI50 [46] was 26.8 µM, the TGI [46] was 91.2 µM and the GI50 [47] was 16.9 µM. For the same compound, the TGI [47] was 36.9 µM, the GI50 [48] was 30.4 µM and the TGI [48] was > 100 µM. For the same compound, the GI50 [49] was 16.6 µM, the TGI [49] was 33.2 µM and the GI50 [50] was 30.5 µM. The TGI [50] was > 100 µM, the GI50 [51] was 34.1 µM and the TGI [51] was > 100 µM. The GI50 [52] was 45.3 µM, the TGI [52] was > 100 µM and the GI50 [53] was 48.2 µM. For the same compound, the TGI [53] was > 100 µM, the GI50 [54] was 30.6 µM and the TGI [54] was > 100 µM. The GI50 [55] was 23.5 µM, the TGI [55] was 71.5 µM and the GI50 [56] was 28.9 µM. For the same compound, the TGI [56] was > 100 µM, the GI50 [57] was 41.6 µM and the TGI [57] was > 100 µM. The GI50 [58] was 48.4 µM and the TGI [58] was > 100 µM.

For `C[C@@H]1OC(O)[C@@H](F)[C@H](O)[C@@H]1O` (some centres not stated), the GI50 [1] was > 100 µM, the TGI [1] was > 100 µM and the GI50 [2] was > 100 µM. For the same compound, the TGI [2] was > 100 µM, the GI50 [3] was > 100 µM and the TGI [3] was > 100 µM. For the same compound, the GI50 [4] was > 100 µM, the TGI [4] was > 100 µM and the GI50 [5] was > 100 µM. For the same compound, the TGI [5] was > 100 µM, the GI50 [6] was > 100 µM and the TGI [6] was > 100 µM. The GI50 [7] was > 100 µM, the TGI [7] was > 100 µM and the GI50 [8] was > 100 µM. For the same compound, the TGI [8] was > 100 µM, the GI50 [9] was > 100 µM and the TGI [9] was > 100 µM. For the same compound, the GI50 [10] was > 100 µM, the TGI [10] was > 100 µM and the GI50 [11] was > 100 µM. The TGI [11] was > 100 µM, the GI50 [12] was > 100 µM and the TGI [12] was > 100 µM. For the same compound, the GI50 [13] was > 100 µM, the TGI [13] was > 100 µM and the GI50 [14] was > 100 µM. The TGI [14] was > 100 µM, the GI50 [15] was > 100 µM and the TGI [15] was > 100 µM. For the same compound, the GI50 [16] was > 100 µM, the TGI [16] was > 100 µM and the GI50 [17] was > 100 µM. For the same compound, the TGI [17] was > 100 µM, the GI50 [18] was > 100 µM and the TGI [18] was > 100 µM. For the same compound, the GI50 [19] was > 100 µM, the TGI [19] was > 100 µM and the GI50 [21] was > 100 µM. The TGI [21] was > 100 µM, the GI50 [22] was > 100 µM and the TGI [22] was > 100 µM. The GI50 [23] was > 100 µM, the TGI [23] was > 100 µM and the GI50 [24] was > 100 µM. The TGI [24] was > 100 µM, the GI50 [25] was > 100 µM and the TGI [25] was > 100 µM. The GI50 [59] was > 100 µM, the TGI [59] was > 100 µM and the GI50 [26] was > 100 µM. For the same compound, the TGI [26] was > 100 µM, the GI50 [27] was > 100 µM and the TGI [27] was > 100 µM. The GI50 [28] was > 100 µM, the TGI [28] was > 100 µM and the GI50 [29] was > 100 µM. For the same compound, the TGI [29] was > 100 µM, the GI50 [30] was > 100 µM and the TGI [30] was > 100 µM. For the same compound, the GI50 [31] was > 100 µM, the TGI [31] was > 100 µM and the GI50 [32] was > 100 µM. The TGI [32] was > 100 µM, the GI50 [33] was > 100 µM and the TGI [33] was > 100 µM. The GI50 [34] was > 100 µM, the TGI [34] was > 100 µM and the GI50 [35] was > 100 µM. For the same compound, the TGI [35] was > 100 µM, the GI50 [36] was > 100 µM and the TGI [36] was > 100 µM. The GI50 [37] was > 100 µM, the TGI [37] was > 100 µM and the GI50 [38] was > 100 µM. For the same compound, the TGI [38] was > 100 µM, the GI50 [39] was > 100 µM and the TGI [39] was > 100 µM. The GI50 [40] was > 100 µM, the TGI [40] was > 100 µM and the GI50 [41] was > 100 µM. The TGI [41] was > 100 µM, the GI50 [42] was > 100 µM and the TGI [42] was > 100 µM. The GI50 [43] was > 100 µM, the TGI [43] was > 100 µM and the GI50 [44] was > 100 µM. The TGI [44] was > 100 µM, the GI50 [45] was > 100 µM and the TGI [45] was > 100 µM. For the same compound, the GI50 [46] was > 100 µM, the TGI [46] was > 100 µM and the GI50 [47] was > 100 µM. The TGI [47] was > 100 µM, the GI50 [49] was > 100 µM and the TGI [49] was > 100 µM. The GI50 [50] was > 100 µM, the TGI [50] was > 100 µM and the GI50 [51] was > 100 µM. The TGI [51] was > 100 µM, the GI50 [60] was > 100 µM and the TGI [60] was > 100 µM. The GI50 [52] was > 100 µM, the TGI [52] was > 100 µM and the GI50 [53] was > 100 µM. The TGI [53] was > 100 µM, the GI50 [54] was > 100 µM and the TGI [54] was > 100 µM. The GI50 [55] was > 100 µM, the TGI [55] was > 100 µM and the GI50 [56] was > 100 µM. For the same compound, the TGI [56] was > 100 µM, the GI50 [57] was > 100 µM and the TGI [57] was > 100 µM. For the same compound, the GI50 [58] was > 100 µM and the TGI [58] was > 100 µM.
